In patent US9796742B2, “Kinase inhibitors” (Respivert Limited, priority 2012, dated 2017):

Tests used:
p38 MAPKα = p38 MAPKα (Homo sapiens (Human), UniProt Q16539); experiment: p38 MAPKα enzyme inhibition (FRET, Z-LYTE; Method 2); type: biochemical
Protocol: (§1) The enzyme inhibitory activities of compounds disclosed herein are determined by FRET using synthetic peptides labelled with both donor and acceptor fluorophores (Z-LYTE, Invitrogen Ltd., Paisley, UK).
The inhibitory activities of test compounds against the p38 MAPKα isoform (MAPK14: Invitrogen), are evaluated indirectly by determining the level of activation/phosphorylation of the down-stream molecule, MAPKAP-K2. The p38 MAPKα protein (80 ng/mL, 2.5 μL) is mixed with the test compound (2.5 μL of either 4 μg/mL, 0.4 μg/mL, 0.04 μg/mL or 0.004 μg/mL) for 2 hr at RT. […] The mixture is incubated for 1 hr at RT. Development reagent (protease, 5 μL) is added for 1 hr prior to detection in a fluorescence microplate reader (Varioskan® Flash, ThermoFisher Scientific).
Method 2 This method follows the same steps as Method 1 above, but utilises a higher concentration of the p38 MAPKα protein (2.5 μL of 200 ng/mL protein instead of 2.5 μL of 80 ng/mL protein) for mixing with the test compound.
(§2) In all cases, the site-specific protease cleaves non-phosphorylated peptide only and eliminates the FRET signal. Phosphorylation levels of each reaction are calculated using the ratio of coumarin emission (donor) over fluorescein emission (acceptor), for which high ratios indicate high phosphorylation and low ratios indicate low phosphorylation levels. The percentage inhibition of each reaction is calculated relative to non-inhibited control and the 50% inhibitory concentration (IC50 value) is then calculated from the concentration-response curve.

c-Src = c-Src (Homo sapiens (Human), UniProt P12931); experiment: c-Src enzyme inhibition (FRET, Z-LYTE); type: biochemical
Protocol: as §1
(§3) The inhibitory activities of compounds of the invention against c-Src and Syk enzymes (Invitrogen), are evaluated in a similar fashion to that described hereinabove. The relevant enzyme (3000 ng/mL or 2000 ng/mL respectively, 2.5 μL) is incubated with the test compound (either 4 μg/mL, 0.4 μg/mL, 0.04 μg/mL, or 0.004 μg/mL, 2.5 μL each) for 2 hr at RT. The FRET peptides (8 μM. 2.5 μL), and appropriate ATP solutions (2.5 μL, 800 μM for c-Src, and 60 μM ATP for Syk) are then added to the enzymes/compound mixtures and incubated for 1 hr. Development reagent (protease, 5 μL) is added for 1 hr prior to detection in a fluorescence microplate reader (Varioskan® Flash, ThermoFisher Scientific).
as §2

Syk = Syk (Homo sapiens (Human), UniProt P43405); experiment: Syk enzyme inhibition (FRET, Z-LYTE); type: biochemical
Protocol: as §1, §3, §2

GSK3α = GSK3α (Homo sapiens (Human), UniProt P49840); experiment: GSK 3α enzyme inhibition (FRET, Z-LYTE; Method 2); type: biochemical
Protocol: as §1
The inhibitory activities of compounds of the invention against the GSK 3α enzyme isoform (Invitrogen), are evaluated by determining the level of activation/phosphorylation of the target peptide. The GSK3-α protein (500 ng/mL, 2.5 μL) is mixed with the test compound (2.5 μL at either 4 μg/mL, 0.4 μg/mL, 0.04 μg/mL, or 0.004 μg/mL) for 2 hr at RT. The FRET peptide (8 μM, 2.5 μL), which is a phosphorylation target for GSK3α, and ATP (40 μM, 2.5 μL) are then added to the enzyme/compound mixture and the resulting mixture incubated for 1 hr. Development reagent (protease, 5 μL) is added for 1 hr prior to detection in a fluorescence microplate reader (Varioskan® Flash, ThermoFisher Scientific).
as §2
This method follows the same steps as Method 1 above, but utilises a shorter period of mixing of the test compound (105 minutes instead of 2 hours) with the GSK3-α protein.

PBMCs = experiment: LPS-induced TNFα/IL-8 release in PBMC cells; type: cell-based; conditions: Homo sapiens, LPS-stimulated PBMCs, IL-8, read-out: IC50 Values for Inhibition of Cytokine Release, PBMCs IL-8
Protocol: Peripheral blood mononuclear cells (PBMCs) from healthy subjects are separated from whole blood using a density gradient (Lymphoprep, Axis-Shield Healthcare). The PBMCs are seeded in 96 well plates and treated with compounds at the desired concentration for 2 hours before addition of 1 ng/mL LPS (Escherichia Coli 0111:B4 from Sigma Aldrich) for 24 hours under normal tissue culture conditions (37° C., 5% CO2). The supernatant is harvested for determination of IL-8 and TNFα concentrations by sandwich ELISA (Duo-set, R&D systems) and read on the fluorescence microplate reader (Varioskan® Flash, ThermoFisher Scientific). The concentration at 50% inhibition (IC50) of IL-8 and TNFα production is calculated from the dose response curve.

Sequence of GSK3α (P49840 whole entry): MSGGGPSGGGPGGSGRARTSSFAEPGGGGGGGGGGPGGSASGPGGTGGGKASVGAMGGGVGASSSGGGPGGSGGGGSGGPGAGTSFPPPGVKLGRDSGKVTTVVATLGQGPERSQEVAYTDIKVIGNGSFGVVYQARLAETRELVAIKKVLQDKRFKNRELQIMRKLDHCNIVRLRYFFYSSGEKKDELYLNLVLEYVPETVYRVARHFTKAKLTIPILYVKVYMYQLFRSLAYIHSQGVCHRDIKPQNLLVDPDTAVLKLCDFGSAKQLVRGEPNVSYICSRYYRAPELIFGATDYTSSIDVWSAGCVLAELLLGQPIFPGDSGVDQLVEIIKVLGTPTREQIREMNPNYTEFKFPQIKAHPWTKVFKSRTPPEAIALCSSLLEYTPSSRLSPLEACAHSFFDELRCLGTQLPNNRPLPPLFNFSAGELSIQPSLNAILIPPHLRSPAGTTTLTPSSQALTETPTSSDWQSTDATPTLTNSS
Sequence of c-Src (P12931 whole entry, looked up): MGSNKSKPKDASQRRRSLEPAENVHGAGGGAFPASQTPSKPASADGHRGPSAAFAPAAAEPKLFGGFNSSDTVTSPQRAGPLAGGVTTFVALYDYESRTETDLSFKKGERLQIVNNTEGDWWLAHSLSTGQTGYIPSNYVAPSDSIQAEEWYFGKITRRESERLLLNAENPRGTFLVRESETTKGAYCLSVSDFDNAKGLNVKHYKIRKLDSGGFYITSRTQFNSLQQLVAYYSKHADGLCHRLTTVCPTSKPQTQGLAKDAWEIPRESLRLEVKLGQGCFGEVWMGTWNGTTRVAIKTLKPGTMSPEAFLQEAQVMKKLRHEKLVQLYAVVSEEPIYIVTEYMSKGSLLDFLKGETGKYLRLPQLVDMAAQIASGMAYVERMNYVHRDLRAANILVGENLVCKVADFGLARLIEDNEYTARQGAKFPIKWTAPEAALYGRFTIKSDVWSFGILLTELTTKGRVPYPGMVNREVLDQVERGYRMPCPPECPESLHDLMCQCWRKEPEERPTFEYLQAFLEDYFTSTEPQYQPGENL
Sequence of p38 MAPKα (Q16539 whole entry): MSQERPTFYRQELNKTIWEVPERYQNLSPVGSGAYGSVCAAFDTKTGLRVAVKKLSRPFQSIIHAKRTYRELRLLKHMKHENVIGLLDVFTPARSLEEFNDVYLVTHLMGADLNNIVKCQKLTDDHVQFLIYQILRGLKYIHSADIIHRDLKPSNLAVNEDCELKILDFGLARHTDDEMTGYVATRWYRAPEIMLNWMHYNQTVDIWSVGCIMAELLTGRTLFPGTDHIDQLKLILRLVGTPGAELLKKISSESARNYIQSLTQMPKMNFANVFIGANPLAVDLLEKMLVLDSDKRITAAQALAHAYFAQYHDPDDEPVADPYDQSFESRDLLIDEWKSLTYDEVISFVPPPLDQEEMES

| Structure (SMILES) | IC50 (p38 MAPKα) [nM] | IC50 (c-Src) [nM] | IC50 (Syk) [nM] | IC50 (GSK3α) [nM] | IC50 (PBMCs) [nM] |
| --- | --- | --- | --- | --- | --- |
| Cc1cc(Nc2nccc(Oc3ccc(NC(=O)Nc4cc(C(C)(C)C)nn4-c4ccc(P(C)(C)=O)cc4)c4ccccc34)n2)cc2cn[nH]c12 [Example 21, 1-(3-(tert-Butyl)-1-(4-(dimethylphosphoryl)phenyl)-1H-pyrazol-5-yl)-3-(4-((2-((7-methyl-1H-indazol-5-yl)amino)pyrimidin-4-yl)oxy)naphthalen-1-yl)urea] | 44 | 1 | 2 | 761 | 3.4 |
| CCP(=O)(CC)c1ccc(-n2nc(C(C)(C)C)cc2NC(=O)Nc2ccc(Oc3ccnc(Nc4ccccc4)n3)c3ccccc23)cc1 [Example 22, 1-(3-(tert-Butyl)-1-(4-(diethylphosphoryl)phenyl)-1H-pyrazol-5-yl)-3-(4-((2-(phenylamino)-pyrimidin-4-yl)oxy)naphthalen-1-yl)urea] | 67 | 9 | 200 | 818 | 32.8 |
| CC(C)(C)c1cc(NC(=O)Nc2ccc(Oc3ccnc(N4CCC[C@H]4CO)n3)c3ccccc23)n(-c2ccc(P(C)(C)=O)cc2)n1 [Example 26, (S)-1-(3-(tert-Butyl)-1-(4-(dimethylphosphoryl)phenyl)-1H-pyrazol-5-yl)-3-(4-((2-(2-(hydroxymethyl)pyrrolidin-1-yl)pyrimidin-4-yl)oxy)naphthalen-1-yl)urea] | – | – | – | 8130 | 189 |
| CC(C)(C)c1cc(NC(=O)Nc2ccc(Oc3ccnc(N4CCC[C@@H]4CO)n3)c3ccccc23)n(-c2ccc(P(C)(C)=O)cc2)n1 [Example 27, (R)-1-(3-(tert-Butyl)-1-(4-(dimethylphosphoryl)phenyl)-1H-pyrazol-5-yl)-3-(4-((2-(2-(hydroxymethyl)pyrrolidin-1-yl)pyrimidin-4-yl)oxy)naphthalen-1-yl)urea] | – | – | – | 979 | 209 |
| CC(C)(C)c1cc(NC(=O)Nc2ccc(Oc3ccnc(NCCCO)n3)c3ccccc23)n(-c2ccc(P(C)(C)=O)cc2)n1 [Example 31, 1-(3-(tert-Butyl)-1-(4-(dimethylphosphoryl)phenyl)-1H-pyrazol-5-yl)-3-(4-((2-((3-hydroxy-propyl)amino)pyrimidin-4-yl)oxy)naphthalen-1-yl)urea] | – | – | – | 211 | 90.2 |
| CC(C)(C)c1cc(NC(=O)Nc2ccc(Oc3ccnc(Nc4ccc5c(c4)NC(=O)C5)n3)c3ccccc23)n(-c2cccc(CP(C)(C)=O)c2)n1 [Example 33, 1-(3-(tert-Butyl)-1-(3-((dimethylphosphoryl)methyl)phenyl)-1H-pyrazol-5-yl)-3-(4-((2-((2-oxoindolin-6-yl)amino)pyrimidin-4-yl)oxy)naphthalen-1-yl)urea] | – | – | – | 326 | 2.4 |
| CC(C)(C)c1cc(NC(=O)Nc2ccc(Oc3ccnc(Nc4cccc(OCCN5CCOCC5)c4)n3)c3ccccc23)n(-c2cccc(CP(C)(C)=O)c2)n1 [Example 34, 1-(3-(tert-Butyl)-1-(3-((dimethylphosphoryl)methyl)phenyl)-1H-pyrazol-5-yl)-3-(4-((2-((3-(2-morpholinoethoxy)phenyl)amino)pyrimidin-4-yl)oxy)naphthalen-1-yl)urea] | – | – | – | 324 | 1.1 |
| COc1ccccc1Nc1nccc(Oc2ccc(NC(=O)Nc3cc(C(C)C)nn3-c3cccc(CP(C)(C)=O)c3)c3ccccc23)n1 [Example 40, 1-(1-(3-((dimethylphosphoryl)methyl)phenyl)-3-isopropyl-1H-pyrazol-5-yl)-3-(4-((2-((2-methoxyphenyl)amino)pyrimidin-4-yl)oxy)naphthalen-1-yl)urea] | – | – | – | 8920 | 104 |
| C#Cc1cc(Nc2nccc(Oc3ccc(NC(=O)Nc4cc(C(C)C)nn4-c4cccc(CP(C)(C)=O)c4)c4ccccc34)n2)cc(C(=O)NCCN2CCOCC2)c1 [Example 43, 3-((4-((4-(3-(1-(3-((Dimethylphosphoryl)methyl)phenyl)-3-isopropyl-1H-pyrazol-5-yl)ureido)naphthalen-1-yl)oxy)pyrimidin-2-yl)amino)-5-ethynyl-N-(2-morpholinoethyl)benzamide] | – | – | – | 174 | 1.6 |
| COc1cc(Nc2nccc(Oc3ccc(NC(=O)Nc4cc(C(C)C)nn4-c4cccc(CP(C)(C)=O)c4)c4ccccc34)n2)cc(S(=O)(=O)C2CC2)c1 [Example 46, 1-(4-((2-((3-(Cyclopropylsulfonyl)-5-methoxyphenyl)amino)pyrimidin-4-yl)oxy)naphthalen-1-yl)-3-(1-(3-((dimethylphosphoryl)methyl)phenyl)-3-isopropyl-1H-pyrazol-5-yl)urea] | – | – | – | 1600 | 5.9 |
| COc1cc(Nc2nccc(Oc3ccc(NC(=O)Nc4cc(C(C)(C)C)nn4-c4cccc(CP(C)(C)=O)c4)c4ccccc34)n2)cc(C(=O)NCCN2CCOCC2)c1 [Example 47, 3-((4-((4-(3-(3-(tert-Butyl)-1-(3-((dimethylphosphoryl)methyl)phenyl)-1H-pyrazol-5-yl)ureido)naphthalen-1-yl)oxy)pyrimidin-2-yl)amino)-5-methoxy-N-(2-morpholinoethyl)-benzamide] | – | – | – | 406 | 0.8 |
| CC(C)c1cc(NC(=O)Nc2ccc(Oc3ccnc(Nc4cc(OCCN5CCOCC5)cc(S(C)(=O)=O)c4)n3)c3ccccc23)n(-c2cccc(CP(C)(C)=O)c2)n1 [Example 53, 1-(1-(3-((Dimethylphosphoryl)methyl)phenyl)-3-isopropyl-1H-pyrazol-5-yl)-3-(4-((2-((3-(methylsulfonyl)-5-(2-morpholinoethoxy)phenyl)amino)pyrimidin-4-yl)oxy)naphthalen-1-yl)urea] | – | – | – | 188 | 2 |
| COc1cc(Nc2nccc(Oc3ccc(NC(=O)Nc4cc(C(C)C)nn4-c4cccc(CP(C)(C)=O)c4)c4ncccc34)n2)cc(OCCN2CCOCC2)c1 [Example 54, 1-(1-(3-((Dimethylphosphoryl)methyl)phenyl)-3-isopropyl-1H-pyrazol-5-yl)-3-(5-((2-((3-methoxy-5-(2-morpholinoethoxy)phenyl)amino)pyrimidin-4-yl)oxy)quinolin-8-yl)urea] | – | – | – | > 10000 | 27.4 |
| COCCOCCOCCOCCOCCOc1cc(Nc2nccc(Oc3ccc(NC(=O)Nc4cc(C(C)C)nn4-c4cccc(CP(C)(C)=O)c4)c4ccccc34)n2)cc(OC)c1 [Example 55, 1-(4-((2-((3-(2,5,8,11,14-Pentaoxahexadecan-16-yloxy)-5-methoxyphenyl)amino)-pyrimidin-4-yl)oxy)naphthalen-1-yl)-3-(1-(3-((dimethylphosphoryl)methyl)phenyl)-3-isopropyl-1H-pyrazol-5-yl)urea] | – | – | – | 1670 | 5.4 |
| C#Cc1cc(Nc2nccc(Oc3ccc(NC(=O)Nc4cc(C(C)C)nn4-c4cccc(CP(C)(C)=O)c4)c4ccccc34)n2)cc(OCCN2CCOCC2)c1 [Example 56, 1-(1-(3-((Dimethylphosphoryl)methyl)phenyl)-3-isopropyl-1H-pyrazol-5-yl)-3-(4-((2-((3-ethynyl-5-(2-morpholinoethoxy)phenyl)amino)pyrimidin-4-yl)oxy)naphthalen-1-yl)urea] | – | – | – | 788 | 1.7 |
